Test results reported in ChEMBL document CHEMBL5543122, “Discovery of HC-7366: An Orally Bioavailable and Efficacious GCN2 Kinase Activator” (J Med Chem, 2024).
Converted amounts (≈) assume the structure as drawn.

What was measured:
[1] = Unbound fraction in BALB/c mouse plasma at 3 mg/kg, po and 1 mg/kg, iv measured upto 24 hrs; assay type: ADME, organism-based
[2] = Protein binding in HEK293 cells assessed as free fraction; assay type: ADME, cell-based; conditions: human
[3] = target: T1, Eukaryotic translation initiation factor 2-alpha kinase 3 (Homo sapiens, UniProt Q9NZJ5); test: Activation of PERK in HEK293 cells transfected with ATF4 response element preincubated for 30 mins followed by tunicamycin addition and measured after 6 hrs by One-Glo reagent based plate reader assay; assay type: cell-based
T1 sequence (Q9NZJ5 whole entry): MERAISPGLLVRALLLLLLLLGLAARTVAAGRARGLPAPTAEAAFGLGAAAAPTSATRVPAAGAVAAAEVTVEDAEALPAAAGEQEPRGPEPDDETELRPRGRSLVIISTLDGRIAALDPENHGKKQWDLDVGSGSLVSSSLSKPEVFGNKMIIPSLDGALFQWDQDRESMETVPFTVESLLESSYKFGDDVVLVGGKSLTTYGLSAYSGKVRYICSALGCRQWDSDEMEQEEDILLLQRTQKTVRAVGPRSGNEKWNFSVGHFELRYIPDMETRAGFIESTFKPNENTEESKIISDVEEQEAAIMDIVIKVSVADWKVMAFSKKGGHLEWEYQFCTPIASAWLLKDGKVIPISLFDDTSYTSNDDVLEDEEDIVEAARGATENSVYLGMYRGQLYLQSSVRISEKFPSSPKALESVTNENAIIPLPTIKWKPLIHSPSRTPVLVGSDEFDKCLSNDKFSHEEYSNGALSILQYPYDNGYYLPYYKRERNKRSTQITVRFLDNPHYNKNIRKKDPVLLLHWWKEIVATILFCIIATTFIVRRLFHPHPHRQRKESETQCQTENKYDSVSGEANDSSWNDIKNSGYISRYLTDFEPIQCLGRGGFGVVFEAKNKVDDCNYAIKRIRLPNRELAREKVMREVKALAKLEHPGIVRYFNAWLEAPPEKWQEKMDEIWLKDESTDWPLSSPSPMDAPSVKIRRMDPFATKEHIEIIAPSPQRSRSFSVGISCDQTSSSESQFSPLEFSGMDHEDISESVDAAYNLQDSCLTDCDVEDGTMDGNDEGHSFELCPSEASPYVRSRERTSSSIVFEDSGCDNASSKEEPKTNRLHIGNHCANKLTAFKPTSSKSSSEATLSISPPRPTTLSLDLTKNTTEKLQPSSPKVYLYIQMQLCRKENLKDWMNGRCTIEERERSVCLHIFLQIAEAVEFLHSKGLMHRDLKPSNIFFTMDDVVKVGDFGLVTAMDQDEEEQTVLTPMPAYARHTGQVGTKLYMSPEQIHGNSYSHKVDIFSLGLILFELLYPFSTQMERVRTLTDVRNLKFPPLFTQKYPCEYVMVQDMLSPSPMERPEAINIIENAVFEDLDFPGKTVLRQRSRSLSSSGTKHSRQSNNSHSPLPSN

[4] = Intrinsic clearance in rat hepatocytes assessed per 10^4 cells at 1 uM measured upto 120 mins by UPLC-MS/MS analysis; assay type: ADME, cell-based, Hepatocyte; conditions: 2 h
[5] = Intrinsic clearance in human hepatocytes assessed per 10^4 cells at 1 uM measured upto 120 mins by UPLC-MS/MS analysis; assay type: ADME, cell-based, Hepatocyte; conditions: 2 h
[6] = Unbound clearance in Sprague-Dawley rat plasma at 1 mg/kg, iv measured upto 24 hrs; assay type: ADME, organism-based; conditions: in vivo
[7] = Half-life in Sprague-Dawley rat at 1 mg/kg, iv measured upto 24 hrs; assay type: ADME, organism-based; conditions: in vivo
[8] = Cmax in Sprague-Dawley rat at 3 mg/kg, po measured upto 24 hrs; assay type: ADME, organism-based; conditions: in vivo
[9] = Unbound Cmax in Sprague-Dawley rat at 3 mg/kg, po measured upto 24 hrs; assay type: ADME, organism-based; conditions: in vivo
[10] = Unbound AUC in Sprague-Dawley rat at 3 mg/kg, po measured upto 24 hrs; assay type: ADME, organism-based; conditions: in vivo
[11] = Oral bioavailability in Sprague-Dawley rat at 3 mg/kg measured upto 24 hrs; assay type: ADME, organism-based; conditions: in vivo, po, 3 mg/kg, 24 h
[12] = target: T2, Dual specificity mitogen-activated protein kinase kinase 5 (Homo sapiens, UniProt Q13163); test: Inhibition of MAP2K5 in human MOLM16 cells; assay type: cell-based
T2 sequence (Q13163 whole entry): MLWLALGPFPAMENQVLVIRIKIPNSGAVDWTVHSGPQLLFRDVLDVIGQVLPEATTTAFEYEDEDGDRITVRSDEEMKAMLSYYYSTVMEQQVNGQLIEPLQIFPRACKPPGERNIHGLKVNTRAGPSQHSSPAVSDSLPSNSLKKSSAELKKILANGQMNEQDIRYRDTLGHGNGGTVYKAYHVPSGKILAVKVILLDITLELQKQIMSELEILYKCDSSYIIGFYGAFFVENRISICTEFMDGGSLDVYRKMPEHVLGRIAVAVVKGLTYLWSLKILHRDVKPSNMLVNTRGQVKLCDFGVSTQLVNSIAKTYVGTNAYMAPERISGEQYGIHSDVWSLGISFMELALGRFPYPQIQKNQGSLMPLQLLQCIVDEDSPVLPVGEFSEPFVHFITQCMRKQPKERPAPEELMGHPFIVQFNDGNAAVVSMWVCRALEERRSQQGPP

[13] = target: T1, Eukaryotic translation initiation factor 2-alpha kinase 3; test: Inhibition of PEK in human MOLM16 cells; assay type: cell-based
[14] = target: Phosphatidylinositol 4-phosphate 3-kinase C2 domain-containing subunit beta (Homo sapiens, UniProt O00750); test: Inhibition of PIK3C2B in human MOLM16 cells; assay type: cell-based
Phosphatidylinositol 4-phosphate 3-kinase C2 domain-containing subunit beta, sequence (O00750 whole entry, the tested form may be a part): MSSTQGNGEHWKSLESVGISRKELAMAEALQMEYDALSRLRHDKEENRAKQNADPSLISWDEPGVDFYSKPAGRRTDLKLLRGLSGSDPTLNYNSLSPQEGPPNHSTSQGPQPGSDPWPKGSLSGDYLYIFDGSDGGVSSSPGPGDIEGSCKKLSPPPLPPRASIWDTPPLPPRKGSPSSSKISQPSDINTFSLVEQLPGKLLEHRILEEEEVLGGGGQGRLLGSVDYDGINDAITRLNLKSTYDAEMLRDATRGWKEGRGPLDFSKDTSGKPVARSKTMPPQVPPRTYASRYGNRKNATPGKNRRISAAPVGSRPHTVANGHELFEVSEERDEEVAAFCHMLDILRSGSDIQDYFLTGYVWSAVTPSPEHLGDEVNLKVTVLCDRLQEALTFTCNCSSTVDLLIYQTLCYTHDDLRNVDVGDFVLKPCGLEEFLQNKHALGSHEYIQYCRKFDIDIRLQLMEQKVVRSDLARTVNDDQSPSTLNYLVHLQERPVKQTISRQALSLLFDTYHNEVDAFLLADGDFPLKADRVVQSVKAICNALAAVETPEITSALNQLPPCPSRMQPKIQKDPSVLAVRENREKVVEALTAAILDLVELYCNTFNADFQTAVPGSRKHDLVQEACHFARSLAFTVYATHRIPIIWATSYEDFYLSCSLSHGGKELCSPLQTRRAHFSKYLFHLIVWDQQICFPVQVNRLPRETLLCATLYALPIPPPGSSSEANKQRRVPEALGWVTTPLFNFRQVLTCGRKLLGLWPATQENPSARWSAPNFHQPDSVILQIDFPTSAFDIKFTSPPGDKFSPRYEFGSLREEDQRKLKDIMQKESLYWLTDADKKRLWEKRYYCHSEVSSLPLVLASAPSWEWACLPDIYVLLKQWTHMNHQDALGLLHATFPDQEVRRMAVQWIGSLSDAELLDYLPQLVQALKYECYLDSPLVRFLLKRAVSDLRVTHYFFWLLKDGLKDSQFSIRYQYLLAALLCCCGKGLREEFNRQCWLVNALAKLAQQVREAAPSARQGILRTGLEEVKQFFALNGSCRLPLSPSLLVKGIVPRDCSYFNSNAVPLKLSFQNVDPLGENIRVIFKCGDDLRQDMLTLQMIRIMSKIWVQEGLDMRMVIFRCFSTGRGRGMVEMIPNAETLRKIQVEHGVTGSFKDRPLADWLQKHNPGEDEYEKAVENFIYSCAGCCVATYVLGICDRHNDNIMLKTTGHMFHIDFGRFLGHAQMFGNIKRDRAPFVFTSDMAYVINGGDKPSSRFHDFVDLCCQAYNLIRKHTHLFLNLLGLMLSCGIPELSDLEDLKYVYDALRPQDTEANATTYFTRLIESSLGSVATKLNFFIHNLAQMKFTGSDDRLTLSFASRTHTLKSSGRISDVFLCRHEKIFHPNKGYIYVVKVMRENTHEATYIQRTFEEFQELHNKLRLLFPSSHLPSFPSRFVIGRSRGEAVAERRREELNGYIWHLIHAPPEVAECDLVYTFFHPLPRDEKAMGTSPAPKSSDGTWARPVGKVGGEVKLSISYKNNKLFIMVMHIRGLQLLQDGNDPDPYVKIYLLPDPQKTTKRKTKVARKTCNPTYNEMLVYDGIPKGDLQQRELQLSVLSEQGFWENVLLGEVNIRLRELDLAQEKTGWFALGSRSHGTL

[15] = Unbound clearance in BALB/c mouse plasma at 3 mg/kg, po and 1 mg/kg, iv measured upto 24 hrs; assay type: ADME, organism-based; conditions: in vivo
[16] = Volume of distribution at steady state in BALB/c mouse at 3 mg/kg, po and 1 mg/kg, iv measured upto 24 hrs; assay type: ADME, organism-based; conditions: in vivo
[17] = Unbound volume of distribution at steady state in BALB/c mouse at 3 mg/kg, po and 1 mg/kg, iv measured upto 24 hrs; assay type: ADME, organism-based; conditions: in vivo
[18] = Unbound Cmax in BALB/c mouse at 3 mg/kg, po and 1 mg/kg, iv measured upto 24 hrs; assay type: ADME, organism-based; conditions: in vivo
HT-1080 [19] = test: Antitumor activity against human HT-1080 cells xenografted in BALB/c nude mouse assessed as mean tumor growth inhibition at 0.3 mg/kg administered twice a day for 14 days; assay type: functional; conditions: HT-1080, 336 h, time 14 day, read-out: TGI
HT-1080 [20] = test: Antitumor activity against human HT-1080 cells xenografted in BALB/c nude mouse assessed as mean tumor growth inhibition at 1 mg/kg administered twice a day for 14 days; assay type: functional; conditions: HT-1080, 336 h, time 14 day, read-out: TGI
[21] = Toxicity in BALB/c nude mouse xenografted with human MOLM16 cells assessed as change in body weight at 0.3 to 3 mg/kg administered twice a day for 17 days; assay type: organism-based; conditions: in vivo, 408 h, dose 0.3-3 mg/kg, time 17 day
[22] = Antitumor activity against human MOLM16 cells xenografted in BALB/c nude mouse assessed as tumor growth inhibition at 0.3 mg/kg administered twice a day for 17 days; assay type: functional, MOLM-16; conditions: MOLM16, 408 h, time 17 day, read-out: TGI
[23] = Unbound AUC in BALB/c mouse at 3 mg/kg, po measured upto 24 hrs; assay type: ADME, organism-based; conditions: in vivo
physchem = conditions: SGF
Description: Thermodynamic solubility in SGF at 1 mg incubated for 24 hrs by UPLC-MS/MS analysis

## CNC(=O)c1ncn2cc(-c3c(F)ccc(NS(=O)(=O)c4cc(Cl)cnc4OC)c3F)ncc12
[1]
  fraction unbound at 24 h: 0.002
[2]
  fraction unbound: 0.35
[3]
  EC50: 6.9 µM
[4]
  CLH: 3.5 µL/min
[5]
  CLH: 4.7 µL/min
[6]
  CL free: 17.4 L/h/kg
[7]
  half-life: 6.3 h
[8]
  Cmax: 10.1 µM
[9]
  fCmax: 7.1 nM
[10]
  fAUC: 48 nM·h
[11]
  F: 29%
[12]
  IC50: 2.9 µM
[13]
  IC50: 5.2 µM
[14]
  IC50: 3.4 µM
[15]
  CL free: 4.2 L/h/kg
[16]
  Vdss: 0.12 L/kg
[17]
  fVdss: 60 L/kg
[18]
  fCmax: 52 nM
HT-1080 [19]
  inhibition in vivo at 0.3 mg/kg: 18%
HT-1080 [20]
  inhibition in vivo at 1 mg/kg: 80%
[21]
  Activity: Non-Toxic
[22]
  inhibition in vivo at 0.3 mg/kg: 66%
[23]
  fAUC: 130 nM·h
physchem
  solubility thermodynamic at 24 h: 0.89 µM (≈ 0.453 µg/mL)
